Where “and” joins values, the source holds several entries; their conditions need not be identical. Equal values may be shown once. Read-outs that look alike come from different tables or passages of the source.
Molecular target: T1, Human GLP-1 receptor (Homo sapiens, UniProt P43220)
T1 construct: expressed in transfected cells
Assay: Measurement of GLP-1 receptor agonist activity (cAMP assay)
Format: cell-based
Protocol: Test Example 1: (Measurement of GLP-1 Receptor Agonist Activity)
Human GLP-1 receptor stably expressing cells (hGLP-1R/CHO-K1 cells) are cultured in an α-MEM medium (Sigma) containing 10% FBS (Hyclone), 2% GlutaMAX (Gibco), 1% G418 (Nacalai Tesque), and 1% Penicillin-Streptomycin Mixed Solution (Sigma) at 37° C. under 5% CO2 conditions, and recovered by treating a 10 fold diluted 5.0 g/l-trypsin/5.3 mmol/l-EDTA solution (Nacalai Tesque) and cryopreserved.
A DMSO solution containing the compound of the present invention or human GLP-1 (7-36) (Phoenix Pharmaceuticals) is dispensed into a 384-well microplate (Greiner) at 62.5 nL/well, and in addition, 400 μM Forskolin (Nacalai Tesque) is dispensed therein at 7.5 nL/well. Subsequently, the frozen GLP-1 R/CHO-K1 cells are thawed in a thermostatic bath at 37° C., suspended in HBSS buffer (GIBCO) containing 0.1% BSA (Sigma), 20 mM HEPES (GIBCO), 0.1 mM IBMX (Sigma), and 0.2 mM RO20-1724 (Calbiochem) at 2×10^4 cells/mL, and the cell suspension is added at 6 μL/well. The solution was incubated at 37° C. for 1 hour and intracellular cAMP concentration is measured using cAMP Gs dynamic kit (Cisbio) according to the protocol attached to the product. Specifically, cAMP-d2 and Anti-cAMP-Cryptate are each added in an amount of 3 μL/well, the mixture is incubated at room temperature for 1 hour, and time-resolved fluorescence is measured using PHERAstar (BMG Labtech).
The dilution concentration or the dilution solvent are changed as necessary.
The compounds of the present invention were tested essentially as described above.

[1] = CHO-K1, maximum effect, cAMP increase in GLP-1 R/CHO-K1 cells, 2 nM human GLP-1 (7-36) = 100%, DMSO only = 0%, read-out: Emax
[2] = cAMP increase in GLP-1 R/CHO-K1 cells, 2 nM human GLP-1 (7-36) = 100%, DMSO only = 0%
[3] = CHO-K1, hGLP-1R/CHO-K1 cells, cAMP, 100% = human GLP-1 (7-36) at 2 nM, 0% = DMSO only, read-out: Emax(%)
[4] = hGLP-1R/CHO-K1 cells, cAMP increase, 37° C. 1 hour

T1 sequence (P43220 24-463): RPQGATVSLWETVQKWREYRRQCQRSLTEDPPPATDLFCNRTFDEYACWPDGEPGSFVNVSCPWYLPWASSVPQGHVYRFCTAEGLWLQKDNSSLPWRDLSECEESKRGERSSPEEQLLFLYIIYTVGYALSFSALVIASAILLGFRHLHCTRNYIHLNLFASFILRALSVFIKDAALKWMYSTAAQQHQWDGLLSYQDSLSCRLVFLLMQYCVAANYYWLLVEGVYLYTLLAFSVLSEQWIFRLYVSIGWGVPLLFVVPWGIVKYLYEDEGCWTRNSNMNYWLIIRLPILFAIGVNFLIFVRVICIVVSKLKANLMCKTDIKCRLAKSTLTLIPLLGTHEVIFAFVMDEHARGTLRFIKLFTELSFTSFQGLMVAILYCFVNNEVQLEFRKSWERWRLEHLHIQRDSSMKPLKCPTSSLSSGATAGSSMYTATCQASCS

| SMILES | Emax [1] | EC50 [2] | Emax [3] | EC50 [4] | Emax (maximum effect, cAMP increase in GLP-1 R/CHO-K1 cells, 2 nM human GLP-1 (7-36) = 100%, DMSO only = 0%) |
| --- | --- | --- | --- | --- | --- |
| COc1cc(C(=O)O)cc2c1nc(CN1CCc3cc(C(F)(F)F)c(OCc4ccccc4Cl)cc3[C@@H]1C)n2C[C@@H]1CCO1 [Compound I-230] | 109% | 0.693 nM |  |  |  |
| O=C(O)c1ccc2nc(CN3CCc4cc(C(F)F)c(OCc5ccc(Cl)cc5F)cc4C3)n(C[C@@H]3CCO3)c2c1 [Compound I-027] |  |  | 80% | 9.48 nM |  |
| C[C@H]1c2cc(OCc3c(F)cc(Cl)cc3F)c(C(F)(F)F)cc2CCN1Cc1nc2ccc(C(=O)O)nc2n1C[C@@H]1CCO1 [Compound I-115] |  |  | 124% | 0.538 nM |  |
| O=C(O)c1ccc2nc(CN3CCc4cc(C(F)(F)F)c(OCc5ccccc5)cc4C3)n(C[C@@H]3CCO3)c2c1 [Compound I-156] |  |  | 89% | 36.8 nM |  |
| O=C(O)c1ccc2nc(CN3CCc4cc(C(F)(F)F)c(OCc5ccc(Cl)cc5F)nc4C3)n(C[C@@H]3CCO3)c2c1F [Compound I-222] |  |  | 108% |  |  |
| COc1ccc(COc2cc3c(cc2C(F)(F)F)CCN(Cc2nc4ccc(C(=O)O)cc4n2C[C@@H]2CCO2)C3)cc1 [Compound I-104] |  |  | 102% | 4.78 nM |  |
| O=C(O)c1ccc2nc(CN3CCc4cc(C(F)(F)F)c(OCc5ccc(Cl)cc5F)cc4C3)n(C[C@@H]3CCO3)c2c1 [Compound I-023] |  |  | 86% | 4.56 nM |  |
| O=C(O)c1ccc2nc(CN3CCc4cc(C(F)(F)F)c(OCc5ccc(Cl)cc5F)nc4C3)n(C[C@@H]3CCO3)c2c1 [Compound I-110] |  |  | 114% |  |  |
| C[C@H]1c2nc(OCc3c(F)cc(F)cc3F)c(C(F)(F)F)cc2CCN1Cc1nc2ccc(C(=O)O)cc2n1C[C@@H]1CCO1 [Compound I-260] | 115% | 0.128 nM |  |  |  |
| C[C@H]1c2nc(OCc3ccc(C#N)cc3F)c(C(F)(F)F)cc2CCN1Cc1nc2c(F)cc(C(=O)O)cc2n1C[C@@H]1CCO1 [Compound I-241] | 125% | 0.0302 nM |  |  |  |
| C[C@H]1c2nc(OCc3ccc(F)cc3)c(C(F)(F)F)cc2CCN1Cc1nc2ccc(C(=O)O)cc2n1C[C@@H]1CCO1 [Compound I-218] |  |  | 109% | 0.179 nM |  |
| CS(=O)(=O)CCn1c(CN2CCc3cc(C(F)(F)F)c(OCc4ccc(Cl)cc4F)cc3C2)nc2ccc(C(=O)O)cc21 [Compound I-039] |  |  | 83.3% | 43.8 nM |  |
| O=C(O)c1ccc2nc(CN3CCc4cc(C(F)(F)F)c(OCc5ccn(CC(F)(F)F)n5)cc4C3)n(C[C@@H]3CCO3)c2c1 [Compound I-151] |  |  | 93.7% | 124 nM |  |
| CS(=O)(=O)c1ccc(COc2cc3c(cc2C(F)(F)F)CCN(Cc2nc4ccc(C(=O)O)cc4n2C[C@@H]2CCO2)C3)cc1 [Compound I-086] |  |  | 106% | 17.9 nM |  |
| O=C(O)c1ccc2nc(CN3CCc4cc(C(F)(F)F)c(OCc5ccccc5-c5ccccc5)cc4C3)n(C[C@@H]3CCO3)c2c1 [Compound I-088] |  |  | 147% | 7.81 nM |  |
| O=C(O)c1ccc2nc(CN3CCc4cc(C(F)(F)F)c(OCc5ccccc5F)cc4C3)n(C[C@@H]3CCO3)c2c1 [Compound I-154] |  |  | 97.7% | 38.4 nM |  |
| C[C@H]1c2nc(OCc3ccc(OC(F)F)cc3F)c(C(F)(F)F)cc2CCN1Cc1nc2ccc(C(=O)O)nc2n1C[C@@H]1CCO1 [Compound I-289] | 117% | 0.311 nM |  |  |  |
| C[C@H]1c2cc(OCc3ccc(Cl)cc3F)c(Cl)cc2CCN1Cc1nc2ccc(C(=O)O)cc2n1C[C@@H]1CCO1 [Compound I-174] |  |  | 109% | 1.58 nM |  |
| C[C@H]1c2cc(OCc3ccc(F)cc3F)c(C(F)(F)F)cc2CCN1Cc1nc2c(F)cc(C(=O)O)cc2n1C[C@@H]1CCO1 [Compound I-210] |  |  | 113% | 0.434 nM |  |
| COc1ccc(COc2nc3c(cc2C(F)(F)F)CCN(Cc2nc4ccc(C(=O)O)cc4n2C[C@@H]2CCO2)C3)cc1 [Compound I-262] | 109% | 4.47 nM |  |  |  |
| N#Cc1cc(Cl)ccc1COc1cc2c(cc1C(F)(F)F)CCN(Cc1nc3ccc(C(=O)O)cc3n1C[C@@H]1CCO1)C2 [Compound I-157] |  |  | 109% | 4.29 nM |  |
| O=C(O)c1ccc2nc(CN3CCc4cc(C(F)(F)F)c(OCc5ccc(Cl)cc5F)cc4C3)n(C[C@@H]3CCO3)c2n1 [Compound I-026] |  |  | 85% | 6.35 nM |  |
| O=C(O)c1ccc2nc(CN3CCc4cc(C(F)(F)F)c(OCc5ccc(F)c(F)c5)cc4C3)n(C[C@@H]3CCO3)c2c1 [Compound I-093] |  |  | 111% | 16.6 nM |  |
| O=C(O)c1ccc2nc(CN3CCc4cc(C(F)(F)F)c(OCc5ccc(Cl)cc5F)cc4C3)n(Cc3cccnc3)c2c1 [Compound I-051] |  |  | 87.3% | 24.2 nM |  |
| CC(C)n1ccc(COc2cc3c(cc2C(F)(F)F)CCN(Cc2nc4ccc(C(=O)O)cc4n2C[C@@H]2CCO2)C3)n1 [Compound I-149] |  |  | 93.7% | 101 nM |  |

Next, values leading:

| Emax [1] | EC50 [2] | Emax [3] | EC50 [4] | Emax (maximum effect, cAMP increase in GLP-1 R/CHO-K1 cells, 2 nM human GLP-1 (7-36) = 100%, DMSO only = 0%) | SMILES |
| --- | --- | --- | --- | --- | --- |
| 102% | 0.818 nM |  |  |  | O=C(O)c1ccc2nc(CN3CCc4cc(C(F)(F)F)c(OCc5ccc(F)cc5F)nc4C3)n(C[C@@H]3CCO3)c2c1F [Compound I-297] |
| 104% | 0.325 nM |  |  |  | C[C@H]1c2cc(OCc3ccc(Cl)cc3Cl)c(Cl)cc2CCN1Cc1nc2c(F)cc(C(=O)O)cc2n1C[C@@H]1CCO1 [Compound I-337] |
| 107% | 0.396 nM |  |  |  | C[C@H]1c2nc(OCc3ccc(Cl)cn3)c(C(F)(F)F)cc2CCN1Cc1nc2ccc(C(=O)O)nc2n1C[C@@H]1CCO1 [Compound I-391] |
| 117% |  |  |  |  | COc1cc(Cl)ccc1COc1nc2c(cc1C(F)(F)F)CCN(Cc1nc3ccc(C(=O)O)c(F)c3n1C[C@@H]1CCO1)C2 [Compound I-296] |
| 122% | 0.139 nM |  |  |  | COc1ccc(COc2nc3c(cc2C(F)(F)F)CCN(Cc2nc4ccc(C(=O)O)c(F)c4n2C[C@@H]2CCO2)[C@H]3C)cc1 [Compound I-354] |
| 126% | 0.0176 nM |  |  |  | COc1cc(C(=O)O)cc2c1nc(CN1CCc3cc(C(F)(F)F)c(OCc4ccc(Cl)cc4Cl)nc3[C@@H]1C)n2C[C@@H]1CCO1 [Compound I-377] |
| 109% | 0.317 nM |  |  |  | O=C(O)c1ccc2nc(CN3CCc4cc(C(F)(F)F)c(OCc5ccc(Cl)cc5Cl)nc4C3)n(C[C@@H]3CCO3)c2c1F [Compound I-298] |
| 121% | 0.156 nM |  |  |  | C[C@H]1c2nc(OCc3ccc(Cl)cc3Cl)c(C(F)(F)F)cc2CCN1Cc1nc2ccc(C(=O)O)nc2n1C[C@@H]1CCO1 [Compound I-351] |
| 120% | 0.136 nM and 0.2 nM |  |  | 102% | C[C@H]1c2nc(OCc3ccccc3Cl)c(C(F)(F)F)cc2CCN1Cc1nc2c(F)cc(C(=O)O)cc2n1C[C@@H]1CCO1 [Compound I-368] |
| 118% | 0.25 nM |  |  |  | C[C@H]1c2nc(OCc3ccc(C4CC4)cc3)c(C(F)(F)F)cc2CCN1Cc1nc2ccc(C(=O)O)c(F)c2n1C[C@@H]1CCO1 [Compound I-356] |
| 112% | 0.0526 nM |  |  |  | C[C@H]1c2nc(OCc3ccc(F)cc3F)c(C(F)(F)F)cc2CCN1Cc1nc2c(F)cc(C(=O)O)cc2n1C[C@@H]1CCO1 [Compound I-369] |
| 97.7% |  |  |  |  | O=C(O)c1ccc2nc(CN3CCc4cc(C(F)(F)F)c(OCc5ccc(Cl)cc5)nc4C3)n(C[C@@H]3CCO3)c2c1F [Compound I-294] |
| 121% | 0.146 nM |  |  |  | C[C@H]1c2nc(OCc3c(F)cc(F)cc3F)c(C(F)(F)F)cc2CCN1Cc1nc2ccc(C(=O)O)nc2n1C[C@@H]1CCO1 [Compound I-292] |
| 114% | 0.126 nM |  |  |  | O=C(O)c1cc(F)c2nc(CN3CCc4cc(C(F)(F)F)c(OCc5ccc(Cl)cc5Cl)nc4C3)n(C[C@@H]3CCO3)c2c1 [Compound I-384] |
| 115% | 0.05 nM |  |  |  | COc1cc(C(=O)O)cc2c1nc(CN1CCc3cc(C(F)(F)F)c(OCc4ccc(Cl)cc4Cl)nc3C1)n2C[C@@H]1CCO1 [Compound I-389] |
| 105% | 0.655 nM |  |  |  | C[C@H]1c2cc(OCc3ccc(Cl)cc3Cl)c(Cl)cc2CCN1Cc1nc2ccc(C(=O)O)c(F)c2n1C[C@@H]1CCO1 [Compound I-325] |
| 108% | 0.382 nM |  |  |  | O=C(O)c1cc(F)c2nc(CN3CCc4cc(C(F)(F)F)c(OCc5ccc(Cl)cc5)nc4C3)n(C[C@@H]3CCO3)c2c1 [Compound I-380] |
| 94.3% | 2.1 nM |  |  |  | C[C@H]1c2cc(OCc3ccc(Cl)cc3F)c(Cl)cc2CCN1Cc1nc2ccc(C(=O)O)nc2n1C[C@@H]1CCO1 [Compound I-315] |
| 121% | 0.099 nM |  |  |  | C[C@H]1c2nc(OCc3ccc(Cl)cc3F)c(I)cc2CCN1Cc1nc2ccc(C(=O)O)cc2n1C[C@@H]1CCO1 [Compound I-393] |
